# Measured values as given in ChEMBL document CHEMBL1255416, “Genetic and biochemical characterization of TRU-1, the endogenous class C beta-lactamase from Aeromonas enteropelogenes” (Antimicrob Agents Chemother, 2010).
# How the values were obtained:
# [1] = tested on: Aeromonas enteropelogenes; assay: Activity of Aeromonas enteropelogenes Beta-lactamase TRU1
# [2] = tested on: Aeromonas enteropelogenes; assay: Antimicrobial activity against Aeromonas enteropelogenes M1 hyperproducing beta-lactamase AmpC; type: functional
# [3] = tested on: Escherichia coli; assay: Antimicrobial activity against Escherichia coli TOP10; type: functional
# [4] = tested on: Escherichia coli; assay: Antimicrobial activity against Escherichia coli NI540 carrying cloned class C beta-lactamase TRU-1 gene; type: functional
# [5] = tested on: Aeromonas enteropelogenes; assay: Ratio of Kcat Km for Aeromonas enteropelogenes Beta-lactamase TRU1
# [6] = tested on: Aeromonas enteropelogenes; assay: Antimicrobial activity against Aeromonas enteropelogenes ATCC 49803 producing endogenous class C beta-lactamase TRU-1; type: functional
# [7] = tested on: Aeromonas caviae; assay: Ratio of Kcat Km for Aeromonas caviae Beta-lactamase CAV1
# [8] = tested on: Aeromonas caviae; assay: Activity of Aeromonas caviae Beta-lactamase CAV1
# [9] = tested on: Escherichia coli K-12; assay: Activity of Escherichia coli K-12 Beta-lactamase AmpC
# [10] = tested on: Escherichia coli K-12; assay: Ratio of Kcat Km for Escherichia coli K-12 Beta-lactamase AmpC
# [11] = (§1) Inhibition of Aeromonas enteropelogenes Beta-lactamase TRU1
# [12] = tested on: Aeromonas enteropelogenes; assay: as §1
# [13] = tested on: Aeromonas enteropelogenes; assay: Activity of Aeromonas enteropelogenes Beta-lactamase TRU1 assessed as steady state compound hydrolysis rate
# [14] = tested on: Aeromonas enteropelogenes; assay: Ratio of Kcat Km for Aeromonas enteropelogenes Beta-lactamase TRU1 assessed as steady state compound hydrolysis rate
SMILES,Km [1] [µM],kcat [1] [s⁻¹],MIC [2] [µg/mL],MIC [3] [µg/mL],MIC [4] [µg/mL],kcat/Km [5],MIC [6] [µg/mL],kcat/Km [7],Km [8] [µM],kcat [8] [s⁻¹],Km [9] [µM],kcat [9] [s⁻¹],kcat/Km [10],Ki [11] [µM],Km [12] [µM],Km [13] [µM],kcat [13] [s⁻¹],kcat/Km [14] [×10³ /M/s]
CO/N=C(\C(=O)N[C@@H]1C(=O)N2C(C(=O)[O-])=C(C[n+]3cccc4c3CCC4)CS[C@H]12)c1csc(N)n1 [CEFPIROME],85,23,4,0.03,0.5,2.7 ×10⁵ /M/s,0.125,–,–,–,–,–,–,–,–,–,–,–
CC(=O)OCC1=C(C(=O)O)N2C(=O)[C@@H](NC(=O)Cc3cccs3)[C@H]2SC1 [CEPHALOTHIN],45,470,> 256,4,256,1 ×10⁷ /M/s,> 256,1.1 ×10⁶ /M/s,500,540,42,300,7 ×10⁶ /M/s,–,–,–,–,–
CC1(C)S[C@@H]2[C@H](NC(=O)Cc3ccccc3)C(=O)N2[C@H]1C(=O)O [PENICILLIN G],–,27,–,–,–,1.4 ×10⁷ /M/s,–,5.7 ×10⁵ /M/s,8.7,5,4.4,45,1 ×10⁷ /M/s,2,–,–,–,–
CC(C)(O/N=C(\C(=O)N[C@@H]1C(=O)N2C(C(=O)[O-])=C(C[n+]3ccccc3)CS[C@H]12)c1csc(N)n1)C(=O)O [CEFTAZIDIME],–,0.11,16,0.125,8,9.2 ×10⁵ /M/s,0.125,3.3 ×10⁵ /M/s,0.6,0.2,–,–,–,–,0.12,–,–,–
O=C(Cc1cccs1)N[C@@H]1C(=O)N2C(C(=O)[O-])=C(C[n+]3ccccc3)CS[C@H]12,> 600,> 100,–,–,–,1.7 ×10⁵ /M/s,–,3.9 ×10⁵ /M/s,770,300,4,38,9.5 ×10⁶ /M/s,–,–,–,–,–
CC1(C)S[C@@H]2[C@H](NC(=O)[C@H](N)c3ccccc3)C(=O)N2[C@H]1C(=O)O,0.72,0.63,–,–,–,8.8 ×10⁵ /M/s,–,–,–,–,3.5,4.2,1.2 ×10⁶ /M/s,–,–,–,–,–
C[C@H]1[C@H](NC(=O)/C(=N\OC(C)(C)C(=O)O)c2csc(N)n2)C(=O)N1S(=O)(=O)O [AZTREONAM],> 500,–,0.125,–,–,–,–,–,–,–,–,–,–,–,–,–,–,–
CO/N=C(\C(=O)N[C@@H]1C(=O)N2C(C(=O)O)=C(CSc3nc(=O)c(O)nn3C)CS[C@H]12)c1csc(N)n1,–,0.042,–,–,–,7 ×10⁵ /M/s,–,–,–,–,–,–,–,–,6,–,–,–
CO/N=C(\C(=O)N[C@@H]1C(=O)N2C(C(=O)O)=C(COC(C)=O)CS[C@H]12)c1csc(N)n1 [CEFOTAXIME],–,0.015,32,0.06,8,1.7 ×10⁷ /M/s,0.032,2 ×10⁶ /M/s,0.1,0.2,1.7,0.17,1 ×10⁵ /M/s,–,–,–,–,–
CC1(C)S[C@@H]2[C@H](NC(=O)[C@H](C(=O)O)c3ccsc3)C(=O)N2[C@H]1C(=O)O [TICARCILLIN],–,–,8,4,64,–,0.125,–,–,–,–,–,–,–,–,–,–,–
Cc1nnc(SCC2=C(C(=O)O)N3C(=O)[C@@H](NC(=O)Cn4cnnn4)[C@H]3SC2)s1,120,0.55,–,–,–,4.6 ×10³ /M/s,–,–,–,–,–,–,–,–,–,80,0.25,3.1
CO[C@@]1(NC(=O)Cc2cccs2)C(=O)N2C(C(=O)O)=C(COC(N)=O)CS[C@@H]21 [CEFOXITIN],–,0.88,32,4,128,3.5 ×10⁷ /M/s,8,1.3 ×10⁶ /M/s,0.4,0.5,0.65,0.2,3 ×10⁵ /M/s,–,0.025,–,–,–
CC1=C(C(=O)O)N2C(=O)[C@@H](NC(=O)[C@H](N)c3ccccc3)[C@H]2SC1,17,160,–,–,–,9.3 ×10⁶ /M/s,–,–,–,–,–,–,–,–,–,–,–,–
CO/N=C(\C(=O)N[C@@H]1C(=O)N2C(C(=O)[O-])=C(C[N+]3(C)CCCC3)CS[C@H]12)c1csc(N)n1,360,9.4,2,0.03,–,2.6 ×10⁴ /M/s,–,3.6 ×10³ /M/s,690,2.5,–,–,–,–,–,–,–,–
CCN1CCN(C(=O)N[C@@H](C(=O)N[C@@H]2C(=O)N3[C@@H]2SC(C)(C)[C@@H]3C(=O)O)c2ccccc2)C(=O)C1=O [PIPERACILLIN],–,0.54,4,1,8,2.7 ×10⁶ /M/s,0.25,–,–,–,–,–,–,0.2,–,–,–,–
CC1(C)S[C@@H]2[C@H](NC(=O)[C@H](N)c3ccc(O)cc3)C(=O)N2[C@H]1C(=O)O [AMOXICILLIN],–,–,4,2,32,–,2,–,–,–,–,–,–,–,–,–,–,–
C[C@@H](O)[C@H]1C(=O)N2C(C(=O)O)=C(SCCNC=N)C[C@H]12 [IMIPENEM ANHYDROUS],> 500,–,0.125,–,0.25,–,0.125,–,–,–,–,–,–,–,–,–,–,–
CO/N=C(\C(=O)N[C@@H]1C(=O)N2C(C(=O)O)=C(COC(N)=O)CS[C@H]12)c1ccco1,–,0.042,–,–,–,3.8 ×10⁶ /M/s,–,–,–,–,0.15,0.15,1 ×10⁶ /M/s,–,–,–,–,–
